Drawing on PMC11530593, “Structural mechanism of human HCN1 hyperpolarization-activated channel inhibition by ivabradine” (The Journal of Biological Chemistry, 2024), this text covers IC50 for 1 compound.

Molecules are shown by their SMILES.

The target of this test is T1, WT hHCN1 (Homo sapiens, UniProt O60741).
T1 construct: Full-length WT or mutant human HCN1 were cloned into the pcDNA3.1 vector; expressed in transfected cells; host or cells: HeLa cells, pcDNA3.1 vector, transient lipofection
T1 sequence (O60741 1-890): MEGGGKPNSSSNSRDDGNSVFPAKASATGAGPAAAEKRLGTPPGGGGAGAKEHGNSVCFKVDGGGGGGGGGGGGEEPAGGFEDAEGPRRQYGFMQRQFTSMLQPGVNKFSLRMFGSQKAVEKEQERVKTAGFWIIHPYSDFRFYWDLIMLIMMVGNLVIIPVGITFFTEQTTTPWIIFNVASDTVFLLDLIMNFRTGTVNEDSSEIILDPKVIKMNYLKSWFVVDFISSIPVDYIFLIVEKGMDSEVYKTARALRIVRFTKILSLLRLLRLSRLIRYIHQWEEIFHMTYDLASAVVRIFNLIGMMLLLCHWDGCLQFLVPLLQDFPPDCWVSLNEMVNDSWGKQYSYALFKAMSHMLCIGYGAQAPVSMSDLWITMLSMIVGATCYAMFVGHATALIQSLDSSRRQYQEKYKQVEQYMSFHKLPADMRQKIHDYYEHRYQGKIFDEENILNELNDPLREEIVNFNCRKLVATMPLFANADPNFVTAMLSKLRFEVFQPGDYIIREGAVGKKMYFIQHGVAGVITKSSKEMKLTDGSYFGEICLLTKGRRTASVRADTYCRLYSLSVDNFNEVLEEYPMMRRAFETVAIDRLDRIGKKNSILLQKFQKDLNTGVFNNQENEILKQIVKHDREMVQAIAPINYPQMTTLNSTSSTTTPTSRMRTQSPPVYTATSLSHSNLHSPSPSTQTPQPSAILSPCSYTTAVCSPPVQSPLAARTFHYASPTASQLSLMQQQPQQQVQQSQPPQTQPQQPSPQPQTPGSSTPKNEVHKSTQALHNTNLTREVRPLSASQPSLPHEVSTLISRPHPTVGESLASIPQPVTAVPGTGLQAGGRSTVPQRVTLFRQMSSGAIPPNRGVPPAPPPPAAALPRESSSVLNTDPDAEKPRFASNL
The test is described as follows: Whole-cell patch-clamp, Ih inhibition in transfected HeLa cells. Format: cell-based. To be noted: membrane potential -140 mV, read-out: half-maximal inhibitory concentration (IC50) of Ih inhibition. The procedure:
The electrophysiological characteristics of WT hHCN1 were recorded using whole-cell patch-clamp. […] Activation of the HCN1 channel occurred in response to membrane hyperpolarization.
Full-length WT or mutant human HCN1 were cloned into the pcDNA3.1 vector for electrophysiological experiments. HeLa cells (from Thermo Fisher Scientific) cultured in Dulbecco's modified Eagle's medium (from Solarbio Life Science) + 10% fetal bovine serum (from ExCell Bio) at 37 °C were transiently transfected using lipofection, and whole-cell patch-clamp recordings were obtained using the Axon 200B amplifier (Molecular Devices) and clampex software (https://www.moleculardevices.com/products/axon-patch-clamp-system/acquisition-and-analysis-software/pclamp-software-suite), 36 to 48 h posttransfection. The extracellular solution contained 110 mM NaCl, 0.5 mM MgCl2, 1.8 mM CaCl2, 5 mM Hepes, 30 mM KCl, and pH was adjusted to 7.4 with NaOH, while the pipette solution contained 130 mM KCl, 10 mM NaCl, 0.5 mM MgCl2, 1 mM EGTA, 5 mM Hepes, and pH was adjusted to 7.4 with KOH. The recordings were performed at room temperature, voltage-clamp mode, and filtered at 1 kHz. The sampling frequency was 10 kHz, and the series resistance was limited to 5 MΩ. To elicit channel currents, step pulses of 3 s duration ranging from −180 mV to −30 mV were applied, followed by a step to −180 mV lasting 1.25 s. The tail currents evoked by the second step were used to determine the voltage-dependent activation curves and calculate the midpoint of activation potential (V1/2). The half maximal inhibitory concentration (IC50) of drugs was determined by recording currents at a pulse of −140 mV and analyzing current amplitudes at varying drug concentrations. The IC50 value was calculated using the Hill equation.
On the technique in general: In patch-clamp work, channel activity is measured electrically.

For the compound `O=C(CCCN1CCC(O)(c2ccc(Cl)cc2)CC1)c1ccc(F)cc1` [haloperidol], the IC50 was determined as 33.4 µM.
